Experimental data: publication PMC4471902, “Block of NMDA receptor channels by endogenous neurosteroids: implications for the agonist induced conformational states of the channel vestibule” (Scientific Reports, 2015)
pKd: −log10 of the molar value.

What was measured:
[1] = molecular target: T1, GluN1(T648A)/GluN2B receptors (Rattus norvegicus, UniProt P35439+Q00960, T648A); experiment: Whole-cell patch-clamp of GluN1(T648A)/GluN2B receptor responses in HEK293 cells; type: cell-based; settings: for sensitivity of spontaneous currents (absence of glutamate and glycine) to antagonist: 100 μM
T1 construct: expressed in transfected cells; host or cells: HEK293
T1 sequence (Q00960 27-1482, other chains not shown): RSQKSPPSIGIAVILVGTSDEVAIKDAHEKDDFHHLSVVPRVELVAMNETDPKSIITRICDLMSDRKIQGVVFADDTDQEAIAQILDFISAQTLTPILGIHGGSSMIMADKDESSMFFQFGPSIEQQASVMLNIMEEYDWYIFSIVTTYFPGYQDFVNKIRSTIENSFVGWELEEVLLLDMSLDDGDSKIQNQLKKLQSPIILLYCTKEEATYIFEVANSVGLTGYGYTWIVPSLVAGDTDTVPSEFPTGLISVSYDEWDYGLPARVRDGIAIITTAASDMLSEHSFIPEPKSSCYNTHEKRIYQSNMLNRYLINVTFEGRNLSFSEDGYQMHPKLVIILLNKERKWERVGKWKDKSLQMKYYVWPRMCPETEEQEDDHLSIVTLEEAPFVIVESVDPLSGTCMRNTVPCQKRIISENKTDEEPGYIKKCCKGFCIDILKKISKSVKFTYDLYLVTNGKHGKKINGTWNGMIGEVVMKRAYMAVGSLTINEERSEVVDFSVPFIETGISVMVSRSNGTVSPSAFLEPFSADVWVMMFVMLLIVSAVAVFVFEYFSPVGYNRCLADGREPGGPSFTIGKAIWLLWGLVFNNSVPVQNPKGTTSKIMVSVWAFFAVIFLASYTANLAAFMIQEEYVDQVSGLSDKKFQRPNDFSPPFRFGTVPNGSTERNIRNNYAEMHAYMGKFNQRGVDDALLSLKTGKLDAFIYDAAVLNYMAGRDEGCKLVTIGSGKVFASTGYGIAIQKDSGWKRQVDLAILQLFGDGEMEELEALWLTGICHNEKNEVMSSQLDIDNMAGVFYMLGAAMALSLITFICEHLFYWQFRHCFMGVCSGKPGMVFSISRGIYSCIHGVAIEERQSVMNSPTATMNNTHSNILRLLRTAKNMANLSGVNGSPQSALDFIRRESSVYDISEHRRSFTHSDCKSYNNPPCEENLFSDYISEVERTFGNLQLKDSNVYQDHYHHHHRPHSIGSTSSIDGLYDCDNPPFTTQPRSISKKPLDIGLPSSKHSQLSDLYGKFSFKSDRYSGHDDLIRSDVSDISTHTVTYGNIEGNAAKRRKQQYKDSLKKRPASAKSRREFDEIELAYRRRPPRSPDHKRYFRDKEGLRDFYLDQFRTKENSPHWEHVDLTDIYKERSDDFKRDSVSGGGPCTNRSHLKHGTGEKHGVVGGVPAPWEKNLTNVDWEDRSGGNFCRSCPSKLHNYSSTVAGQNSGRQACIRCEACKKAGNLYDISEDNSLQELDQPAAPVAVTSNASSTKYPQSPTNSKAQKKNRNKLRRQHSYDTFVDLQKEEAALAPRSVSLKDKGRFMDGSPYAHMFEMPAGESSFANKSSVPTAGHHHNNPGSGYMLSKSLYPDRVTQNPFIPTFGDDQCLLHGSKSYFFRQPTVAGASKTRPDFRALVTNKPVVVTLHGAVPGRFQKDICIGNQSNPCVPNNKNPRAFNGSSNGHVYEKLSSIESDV
Text: (§1) Human embryonic kidney (HEK293) cells were transfected with expression vectors containing: GluN1–1a (GenBank accession number U08261)[52]; GluN2B (GenBank accession number M91562); GluN1-4a(F484A), (generous gift from Dr. J. J. Woodward)[53] (Smothers & Woodward, 2009); GluN3A (generous gift from Dr. S. A. Lipton)[54] (GenBank accession number NM_138546); GluN1ΔN with deleted 354 amino acids in the NTD (32 to 386); GluN1ΔC with an introduced stop codon in 838 of the CTD GluN2BΔN) with deleted 354 amino acids in the NTD (32 to 386); GluN2BΔC with an introduced stop codon in 844 of the CTD[55]; GluR0 (GenBank accession number Synechocystis PCC 6803) (generous gift from Dr. M. L. Mayer)[18]; and green fluorescent protein (GFP) (pQBI 25, Takara, Tokyo, Japan) genes, as described previously. The Quick-Change site-directed mutagenesis kit (Agilent Technologies, Santa Clara, CA, USA) was used to generate specific point mutations in the M1/M3 region according to the manufacturer’s instructions using manually designed primers purchased from Sigma. Modified DNA plasmids were transformed into competent XL10-Gold E.coli cells, positive clones were selected, and isolated DNA was sequenced. […] All mutations were verified by DNA sequencing (Macrogen, Seoul, Korea or SeQme, Dobris, Czech Republic). The amino acids are numbered according to the full-length protein, including the signal peptide, with the initiating methionine as 1.
(§2) Experiments were performed 24–48 hrs after transfection on cells transfected with GluN1/GluN2B/GFP plasmids. Whole-cell voltage-clamp recordings from HEK293 cells were made with a patch-clamp amplifier (Axopatch 200B; Axon Instruments, Inc., Foster City, CA) after a capacitance and series resistance (<10 MΩ) compensation of 80–90%.
(§3) Patch pipettes (3–5 MΩ) were filled with a solution containing (in mM): 120 gluconic acid, 15 CsCl, 10 BAPTA, 10 HEPES, 3 MgCl2, 1 CaCl2, and 2 ATP-Mg salt (pH-adjusted to 7.2 with CsOH). When GluR0 receptor responses were studied, intracellular solution contained (in mM): 120 gluconic acid, 15 KCl, 10 BAPTA, 10 HEPES, 3 MgCl2, 1 CaCl2, and 2 ATP-Mg salt (pH-adjusted to 7.2 with KOH). Extracellular solution (ECS) contained the following (in mM): 160 NaCl, 2.5 KCl, 10 HEPES, 10 glucose, 0.2 EDTA, and 0.7 CaCl2 (pH-adjusted to 7.3 with NaOH). Glycine (10 μM), an NMDAR co-agonist, was present in the control and test solutions. All (PA-S and PA-A) solutions were made from freshly prepared 20 mM PA-S and 5 mM PA-A stock in dimethyl sulfoxide (DMSO). The final dilution to ECS was made at 50 °C and followed by 1 min sonication (SONOREX DIGITEC DT 100/H, BADELIN electronic, Berlin, Germany). The same concentration of DMSO was added to all extracellular solutions. Drug applications were made with a microprocessor-controlled multibarrel fast-perfusion system. Changes in the glutamate-induced current in HEK293 cells transfected by GluN1/GluN2B subunits were used to estimate the rate of solution exchange around the cell. Standard ECS was switched to the ECS diluted by water (50%) during glutamate application. The osmolarity was adjusted by sucrose to match the standard ECS. Glutamate (1 mM), glycine (10 μM) and pH was maintained constant in both solutions. The solution exchange rate was estimated to be τ = 4.3 ± 0.3 ms (n = 6) for lifted cells and τ = 12.0 ± 0.9 ms (n = 6) for the attached cells.
The IC50 was determined from a single dose of a steroid using the formula [drawing 1] where I is the relative degree of inhibition and [steroid] is the steroid concentration used. Calculations of IC50 were made assuming 100% inhibition at saturating steroid concentration this is valid for both PA-S and PA-A[12][13]. […]

[2] = molecular target: T2, GluN1(V656A)/GluN2B receptors (Rattus norvegicus, UniProt P35439+Q00960, V656A); experiment: Whole-cell patch-clamp of GluN1(V656A)/GluN2B receptor responses in HEK293 cells; type: cell-based
T2 construct: expressed in transfected cells; host or cells: HEK293
T2 sequence (Q00960 27-1482, other chains not shown): as above
Text: as §1, §2
(§4) Patch pipettes (3–5 MΩ) were filled with a solution containing (in mM): 120 gluconic acid, 15 CsCl, 10 BAPTA, 10 HEPES, 3 MgCl2, 1 CaCl2, and 2 ATP-Mg salt (pH-adjusted to 7.2 with CsOH). […]

GluN1/GluN2B receptors [3] = molecular target: T3, GluN1/GluN2B receptors (Rattus norvegicus, UniProt P35439+Q00960); experiment: Whole-cell patch-clamp of GluN1/GluN2B receptor responses in transfected HEK293 cells; type: cell-based
T3 construct: expressed in transfected cells; host or cells: HEK293
T3 sequence (Q00960 27-1482, other chains not shown): as above
Text: as §1, §2, §3
Experiments were performed at room temperature (21–25 °C). Data were collected (low-pass filtered at 2 kHz and sampled at 10 kHz) and analyzed using pClamp 10 (Molecular Devices). Unless otherwise mentioned, error bars represent SEM; statistical comparison of groups was performed using Student’s t-test (p < 0.05 was used to determine the significance).
The IC50 was determined from a single dose of a steroid using the formula [drawing 1] where I is the relative degree of inhibition and [steroid] is the steroid concentration used. […]

[4] = molecular target: T4, GluN1(A649T)/GluN2B receptors (Rattus norvegicus, UniProt P35439+Q00960, A649T); experiment: Whole-cell patch-clamp of GluN1(A649T)/GluN2B receptor responses in HEK293 cells; type: cell-based
T4 construct: expressed in transfected cells; host or cells: HEK293
Text: as §1, §2, §4

GluN1/GluN2B receptors [5] = molecular target: T3, GluN1/GluN2B receptors; design: method as in PMID 22188257; settings: from −60 to +60 mV; cited from earlier work
[6] = PA-A 20 μM, fit to the Boltzmann equation
[7] = PA-A 20 μM, fit to the Boltzmann equation, read-out: Kd(0 mV)

| SMILES | sensitivity of spontaneous currents (absence of glutamate and glycine) to antagonist [1] | voltage dependence of steroid inhibition [2] | δ (apparent electrical distance of the binding site) ([2]; fit to the Boltzmann equation) | pKd ([2]; fit to the Boltzmann equation, read-out: Kd(0 mV)) | voltage dependence of steroid inhibition [1] | δ (apparent electrical distance of the binding site) [1, 6] | pKd [1, 7] | voltage dependence of steroid inhibition (GluN1/GluN2B receptors [3]; WT GluN1/GluN2B) | δ (apparent electrical distance of the binding site) (GluN1/GluN2B receptors [3]; WT, PA-A 20 μM, fit to the Boltzmann equation) | pKd (GluN1/GluN2B receptors [3]; WT, PA-A 20 μM, fit to the Boltzmann equation, read-out: Kd(0 mV)) | mode of inhibition (GluN1/GluN2B receptors [3]; dependence on receptor activation by agonists) | voltage dependence of steroid inhibition [4] | δ (apparent electrical distance of the binding site) [4, 6] | pKd [4, 7] | voltage dependence of inhibition (GluN1/GluN2B receptors [5]) |
| --- | --- | --- | --- | --- | --- | --- | --- | --- | --- | --- | --- | --- | --- | --- | --- |
| O=C(O)c1cc(O)c2ccc(Cl)cc2n1 [7-CKA, 7-Cl-kynurenic acid, reference compound] | only moderately sensitive | – | – | – | – | – | – | – | – | – | – | – | – | – | – |
| N[C@H](CCCP(=O)(O)O)C(=O)O [D-AP5, D-amino-5-phosphonopentanoic acid, reference compound] | only moderately sensitive | – | – | – | – | – | – | – | – | – | – | – | – | – | – |
| CC(=O)C1CCC2C3CC[C@@H]4C[C@H](OC(=O)C[N+](C)(C)C)CC[C@]4(C)C3CC[C@]12C (stereo partly drawn) [PA-A, 5β-pregnan-20-on 3α-yl-[(2-trimethylammonio)-ethanoate]] | – | intermediate voltage dependence | 0.19 | 3.71 | strongly voltage dependent | 0.29 | 3.47 | weak voltage dependence | 0.15 | 3.47 | use-dependent | intermediate voltage dependence | 0.23 | 3.13 | voltage independent |
